Patent US7273848B2, “Apolipoprotein A-I agonists and their use to treat dyslipidemic disorders” (priority 1997, dated 2007)
Read-outs that look alike come from different tables or passages of the source. Non-standard residues stand in square brackets, D forms with d. Residues, ends and D or L forms follow the SMILES beside them. No end group written: not given here. Aib = CC(C)(N)C(=O)O

Experiments:
[1] = Circular dichroism helicity determination; format: physicochemical; conditions: for He (%) TFE: 5 μM peptide, 90% vol TFE; for He (%) TFE / He (%) SUVs: 37° C.; for He (%) free: unbound peptide 5 μM in 5 mM phosphate buffer, pH 7.4, 37° C.; for He (%) SUVs: peptide-SUV complexes (20:1 EPC:Chol., Ri=30 and Ri=50)
Method in brief: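 Far-UV CD (190–260 nm) at 37° C on 5 μM peptide in 5 mM phosphate pH 7.4, free, with EPC:Chol 20:1 SUVs (Ri 30 or 50), lysophosphatidylcholine micelles (Ri 100) or 90% TFE. Spectra converted to molar ellipticity per residue; helicity from 222 nm ellipticity or CONTIN fitting to reference spectra, ±5%.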

[2] = biological target: T1, LCAT (purified from human plasma) (Homo sapiens, UniProt P04180); experiment: LCAT activation assay; format: biochemical
T1 construct: from tissue; host or cells: human plasma
T1 sequence (P04180 25-440): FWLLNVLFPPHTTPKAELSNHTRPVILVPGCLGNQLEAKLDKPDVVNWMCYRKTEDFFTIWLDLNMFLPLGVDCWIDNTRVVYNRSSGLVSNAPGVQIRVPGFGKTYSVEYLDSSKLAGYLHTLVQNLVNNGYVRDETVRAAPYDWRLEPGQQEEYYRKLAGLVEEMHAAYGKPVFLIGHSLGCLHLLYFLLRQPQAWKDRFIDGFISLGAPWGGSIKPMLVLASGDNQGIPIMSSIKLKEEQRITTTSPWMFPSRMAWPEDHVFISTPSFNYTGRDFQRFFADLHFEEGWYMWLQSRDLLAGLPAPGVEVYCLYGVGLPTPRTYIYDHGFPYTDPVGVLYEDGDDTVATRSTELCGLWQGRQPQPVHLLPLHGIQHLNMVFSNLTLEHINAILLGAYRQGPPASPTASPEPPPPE
Method in brief: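 Activity was expressed as percentage conversion of radiolabelled cholesterol to cholesteryl ester, normalised to native ApoA-I as 100%. LCAT purified from human plasma was added to peptide-preincubated EPC or POPC/cholesterol (20:1) small unilamellar vesicles at pH 7.4. Specific activity is the peptide concentration reaching the conversion plateau at a fixed timepoint.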

[3] = percent helicity, peptide-micelle complexes, Ri=100, 37° C.
[4] = LCAT activation as compared with native human ApoA-I (= 100%), equivalent masses

## CC(C)C[C@H](NC(=O)[C@H](C)NC(=O)[C@H](CCC(=O)O)NC(=O)[C@H](CC(C)C)NC(=O)C(C)(C)NC(=O)[C@H](CCC(=O)O)NC(=O)[C@H](Cc1ccc(O)cc1)NC(=O)[C@H](CC(C)C)NC(=O)[C@H](CC(C)C)NC(=O)[C@H](CCC(=O)O)NC(=O)[C@H](CCCNC(=N)N)NC(=O)[C@H](Cc1ccccc1)NC(=O)[C@H](CCC(=O)O)NC(=O)[C@H](CC(=O)O)NC(=O)[C@H](CC(C)C)NC(=O)[C@@H](NC(=O)[C@@H]1CCCN1)C(C)C)C(=O)N[C@@H](CCCCN)C(=O)N[C@@H](CCC(N)=O)C(=O)N[C@@H](CCCCN)C(=O)N[C@@H](CC(C)C)C(=O)N[C@@H](CCCCN)C(=O)O [compound 70, PVLDEFRELLYEXLEALKQKLK] (H-PVLDEFRELLYE[Aib]LEALKQKLK-OH)
[1]; percent helicity
  He (%) TFE: 66%
  He (%) free: 27%
  He (%) SUVs: 33%
[1]; [3]
  He (%) mics: 78%
[2]; [4]
  ACTIVITY (%) LCAT: 12%

## CC(C)C[C@H](NC(=O)[C@H](C)NC(=O)[C@H](CCC(=O)O)NC(=O)[C@H](CC(C)C)NC(=O)C(C)(C)NC(=O)[C@H](CCC(=O)O)NC(=O)[C@H](CC(N)=O)NC(=O)[C@H](CC(C)C)NC(=O)[C@H](CC(C)C)NC(=O)[C@H](CCC(=O)O)NC(=O)[C@H](Cc1c[nH]c2ccccc12)NC(=O)[C@H](Cc1ccccc1)NC(=O)[C@H](CC(C)C)NC(=O)[C@H](CC(=O)O)NC(=O)[C@H](CC(C)C)NC(=O)[C@@H](NC(=O)[C@@H]1CCCN1)C(C)C)C(=O)N[C@@H](CCCCN)C(=O)N[C@@H](CCC(N)=O)C(=O)N[C@@H](CCCCN)C(=O)N[C@@H](CC(C)C)C(=O)N[C@@H](CCCCN)C(=O)O [compound 51, PVLDLFWELLNEXLEALKQKLK] (H-PVLDLFWELLNE[Aib]LEALKQKLK-OH)
[1]; percent helicity
  He (%) TFE: 73%
  He (%) free: 63%
  He (%) SUVs: 81%
[1]; [3]
  He (%) mics: 82%
[2]; [4]
  ACTIVITY (%) LCAT: 20%

## Ac-PLLDLFRELLEELKQKLK-NH2 [compound 197]
[1]; percent helicity
  He (%) TFE: 69%
  He (%) free: 43%
[1]; [3]
  He (%) mics: 70%
[2]; [4]
  ACTIVITY (%) LCAT: 81%

## Ac-EWLKAFYEKVLEKLKELF-NH2 [peptide 238, reference compound]
[1]; percent helicity
  He (%) TFE: 58%
  He (%) free: 49%
  He (%) SUVs: 60%
[1]; [3]
  He (%) mics: 72%
[2]; [4]
  ACTIVITY (%) LCAT: 19%

## CC(C)C[C@H](NC(=O)[C@H](C)NC(=O)[C@H](CCC(=O)O)NC(=O)[C@H](CC(C)C)NC(=O)C(C)(C)NC(=O)[C@H](CCC(=O)O)NC(=O)[C@H](CC(N)=O)NC(=O)[C@H](CC(C)C)NC(=O)[C@H](CCCCN)NC(=O)[C@H](CCC(=O)O)NC(=O)[C@H](CCCNC(=N)N)NC(=O)[C@H](Cc1c[nH]c2ccccc12)NC(=O)[C@H](CCC(=O)O)NC(=O)[C@H](CC(=O)O)NC(=O)[C@H](CC(C)C)NC(=O)[C@@H](NC(=O)[C@@H]1CCCN1)C(C)C)C(=O)N[C@@H](CCCCN)C(=O)N[C@@H](CCC(N)=O)C(=O)N[C@@H](CCCCN)C(=O)N[C@@H](CC(C)C)C(=O)N[C@@H](CCCCN)C(=O)O [compound 62, PVLDEWREKLNEXLEALKQKLK] (H-PVLDEWREKLNE[Aib]LEALKQKLK-OH)
[1]; percent helicity
  He (%) free: 15%
  He (%) SUVs: 43%
[1]; [3]
  He (%) mics: 85%
[2]; [4]
  ACTIVITY (%) LCAT: 16%

## CC(C)C[C@H](NC(=O)[C@H](C)NC(=O)[C@H](CCC(=O)O)NC(=O)[C@H](CC(C)C)NC(=O)[C@H](CC(C)C)NC(=O)[C@H](CCC(=O)O)NC(=O)[C@H](CC(N)=O)NC(=O)[C@H](CC(C)C)NC(=O)[C@H](CC(C)C)NC(=O)[C@H](CCC(=O)O)NC(=O)[C@H](CCCNC(=N)N)NC(=O)[C@H](Cc1ccccc1)NC(=O)[C@H](CC(C)C)NC(=O)[C@H](CC(=O)O)NC(=O)[C@H](CC(C)C)NC(=O)[C@@H](NC(=O)[C@@H]1CCCN1S(=O)(=O)c1cccc2c(N(C)C)cccc12)C(C)C)C(=O)N[C@@H](CCCCN)C(=O)N[C@@H](CCC(N)=O)C(=O)N[C@@H](CCCCN)C(=O)N[C@@H](CC(C)C)C(=O)N[C@@H](CCCCN)C(=O)O [compound 30]
[1]
  He (%) mics: 90%
[1]; percent helicity
  He (%) TFE: 90%
  He (%) free: 85%
  He (%) SUVs: 98%
[2]
  ACTIVITY (%) LCAT: 38%

## PVLDLFRNLLEKLLEALEQKLK [compound 49]
[1]; percent helicity
  He (%) TFE: 57%
  He (%) free: 57%
  He (%) SUVs: 52%
[1]; [3]
  He (%) mics: 65%
[2]; [4]
  ACTIVITY (%) LCAT: 22%

## PVLDLFRELLNELLEWLKQKLK [compound 3]
[1]; percent helicity
  He (%) TFE: 95%
  He (%) free: 70%
  He (%) SUVs: 80%
[1]; [3]
  He (%) mics: 95%
[2]; [4]
  ACTIVITY (%) LCAT: 98%

## PVLELFENLLERLWDALQKKLK [compound 163]
[1]; percent helicity
  He (%) TFE: 55%
  He (%) free: 27%
[1]; [3]
  He (%) mics: 53%
[2]; [4]
  ACTIVITY (%) LCAT: 26%

## CC(C)C[C@H](NC(=O)[C@H](C)NC(=O)[C@H](CCC(=O)O)NC(=O)[C@H](CC(C)C)NC(=O)C(C)(C)NC(=O)[C@H](CCC(=O)O)NC(=O)[C@H](CC(N)=O)NC(=O)[C@H](CC(C)C)NC(=O)[C@H](CC(C)C)NC(=O)[C@H](CCC(=O)O)NC(=O)[C@H](CCCNC(=N)N)NC(=O)[C@H](Cc1ccccc1)NC(=O)[C@H](Cc1ccccc1)NC(=O)[C@H](CC(=O)O)NC(=O)[C@H](CC(C)C)NC(=O)[C@@H](NC(=O)[C@@H]1CCCN1)C(C)C)C(=O)N[C@@H](CCCCN)C(=O)N[C@@H](CCC(N)=O)C(=O)N[C@@H](CCCCN)C(=O)N[C@@H](CC(C)C)C(=O)N[C@@H](CCCCN)C(=O)O [peptide 25, PVLDFFRELLNEXLEALKQKLK] (H-PVLDFFRELLNE[Aib]LEALKQKLK-OH)
[1]; percent helicity
  He (%) TFE: 93%
  He (%) free: 46%
[1]; [3]
  He (%) mics: 82%
[2]; [4]
  ACTIVITY (%) LCAT: 51%

## PVLDLFKELLNELLEALKQKLK [peptide 7]
[1]; percent helicity
  He (%) TFE: 73%
  He (%) free: 77%
  He (%) SUVs: 85%
[1]; [3]
  He (%) mics: 89%
[2]; [4]
  ACTIVITY (%) LCAT: 83%

## DWFKAFYDKVAEKFKEAF [peptide 243, reference compound]
[1]; percent helicity
  He (%) free: 10%
  He (%) SUVs: 50%
[1]; [3]
  He (%) mics: 64%
[2]; [4]
  ACTIVITY (%) LCAT: 5%

## CC(C)C[C@H](NC(=O)[C@H](C)NC(=O)[C@H](CCC(=O)O)NC(=O)[C@H](CC(C)C)NC(=O)C(C)(C)NC(=O)[C@H](CCC(=O)O)NC(=O)[C@H](CC(N)=O)NC(=O)[C@H](CC(C)C)NC(=O)[C@H](CCCCN)NC(=O)[C@H](CCC(=O)O)NC(=O)[C@H](CCCNC(=N)N)NC(=O)[C@H](Cc1ccccc1)NC(=O)[C@H](CCC(=O)O)NC(=O)[C@H](CC(=O)O)NC(=O)[C@H](CC(C)C)NC(=O)[C@@H](NC(=O)[C@@H]1CCCN1)C(C)C)C(=O)N[C@@H](CCCCN)C(=O)N[C@@H](CCC(N)=O)C(=O)N[C@@H](CCCCN)C(=O)N[C@@H](CC(C)C)C(=O)N[C@@H](CCCCN)C(=O)O [compound 45, PVLDEFREKLNEXLEALKQKLK] (H-PVLDEFREKLNE[Aib]LEALKQKLK-OH)
[1]; percent helicity
  He (%) TFE: 86%
  He (%) free: 24%
  He (%) SUVs: 25%
[1]; [3]
  He (%) mics: 84%
[2]; [4]
  ACTIVITY (%) LCAT: 24%

## EWLKAFYEKVLEKLKELF [peptide 248, reference compound]
[1]; percent helicity
  He (%) free: 18%
  He (%) SUVs: 13%
[1]; [3]
  He (%) mics: 45%
[2]; [4]
  ACTIVITY (%) LCAT: 3%

## CC(C)C[C@@H](NC(=O)[C@@H](C)NC(=O)[C@@H](CCC(=O)O)NC(=O)[C@@H](CC(C)C)NC(=O)[C@@H](CC(C)C)NC(=O)[C@@H](CCC(=O)O)NC(=O)[C@@H](CC(N)=O)NC(=O)[C@@H](CC(C)C)NC(=O)[C@@H](CC(C)C)NC(=O)[C@@H](CCC(=O)O)NC(=O)[C@@H](CCCNC(=N)N)NC(=O)[C@@H](Cc1ccccc1)NC(=O)[C@@H](CC(C)C)NC(=O)[C@@H](CC(=O)O)NC(=O)[C@@H](CC(C)C)NC(=O)[C@H](NC(=O)[C@H]1CCCN1)C(C)C)C(=O)N[C@H](CCCCN)C(=O)N[C@H](CCC(N)=O)C(=O)N[C@H](CCCCN)C(=O)N[C@H](CC(C)C)C(=O)N[C@H](CCCCN)C(=O)O [compound 100, pvldlfrellnellealkqklk]
[1]; percent helicity
  He (%) TFE: 98%
  He (%) free: 83%
[1]; [3]
  He (%) mics: 92%
[2]; [4]
  ACTIVITY (%) LCAT: 2%

## PVLELFENLLERLLDWLQKKLK [compound 160]
[1]; percent helicity
  He (%) TFE: 61%
  He (%) free: 65%
  He (%) SUVs: 75%
[1]; [3]
  He (%) mics: 73%
[2]; [4]
  ACTIVITY (%) LCAT: 28%

## Ac-PVLDLFRELLEELKQKLK-NH2 [compound 193]
[1]; percent helicity
  He (%) TFE: 87%
  He (%) free: 34%
  He (%) SUVs: 87%
[1]; [3]
  He (%) mics: 88%
[2]; [4]
  ACTIVITY (%) LCAT: 96%

## PVLDWFRELLNELLEALKQKLK [compound 35]
[1]; percent helicity
  He (%) free: 49%
  He (%) SUVs: 61%
[1]; [3]
  He (%) mics: 59%
[2]; [4]
  ACTIVITY (%) LCAT: 31%
